Experimental data published in US8530650B2, “2, 5-diamino-substituted pyrido [4, 3-D] pyrimidines as autotaxin inhibitors against cancer” (MERCK PATENT GmbH, priority 2008, dated 2013).
pIC50: −log10 of the molar value.

target: T1, recombinant autotaxin (Homo sapiens, UniProt Q13822); experiment: Autotaxin assay (Amplex Red, LPC substrate); format: biochemical; conditions: 75 μM LPC, Amplex Red fluorescence, ten 1:3 dilutions starting at 30 μM
T1 construct: made in house; host or cells: Hi5 insect cells (baculovirus)
Summary of the method: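 Baculovirus (Hi5)-expressed autotaxin (16 ng) was preincubated with compound 30 min at 22° C., then reacted with 75 μM final egg LPC for 90 min at 37° C.; choline released was coupled via choline oxidase/peroxidase to Amplex Red, fluorescence read kinetically (ex 485/em 612 nm). IC50 from 10-point 1:3 dilutions from 30 μM, duplicates, normalized to 500 μM C14 LPA as 0%.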

`Clc1ccccc1CNc1ncc2c(N3CCN(c4nccs4)CC3)nccc2n1` [Compound 109, (2-Chloro-benzyl)-[5-(4-thiazol-2-yl-piperazin-1-yl)-pyrido[4,3-d]pyrimidin-2-yl]amine] and `Clc1ccccc1CNc1ncc2c(N3CCN(c4ncccn4)CC3)nccc2n1` [Compound 112, (2-Chloro-benzyl)-[5-(4-pyrimidin-2-yl-piperazin-1-yl)-pyrido[4,3-d]pyrimidin-2-yl]-amine] cannot be ordered by pIC50: over 5.00 for the first, over 4.52 for the second.

`O=C(c1ccco1)N1CCN(c2nccc3nc(NCc4ccccc4Cl)ncc23)CC1` [Compound 113, {4-[2-(2-Chloro-benzylamino)-pyrido[4,3-d]pyrimidin-5-yl]-piperazin-1-yl}-furan-2-yl-methanone] and `O=C(NCc1ccco1)N1CCN(c2nccc3nc(NCc4ccccc4Cl)ncc23)CC1` [Compound 117, 4-[2-(2-Chloro-benzylamino)-pyrido[4,3-d]pyrimidin-5-yl]-piperazine-1-carboxylic acid (furan-2-ylmethyl)-amide] cannot be ordered by pIC50: over 5.30 for the first, over 4.52 for the second.

`CCOC(=O)N1CCN(c2nccc3nc(NCc4ccccc4Cl)ncc23)CC1` [Compound 114, 4-[2-(2-Chloro-benzylamino)-pyrido[4,3-d]pyrimidin-5-yl]-piperazine-1-carboxylic acid ethyl ester] and `CC(=O)N1CCN(c2nccc3nc(NCc4ccccc4Cl)ncc23)CC1` [Compound 115, 1-{4-[2-(2-Chloro-benzylamino)-pyrido[4,3-d]pyrimidin-5-yl]-piperazin-1-yl}-ethanone] cannot be ordered by pIC50: over 5.30 for the first, over 4.52 for the second.

`O=C(N1CCOCC1)N1CCN(c2nccc3nc(NCc4ccccc4Cl)ncc23)CC1` [Compound 116, {4-[2-(2-Chloro-benzylamino)-pyrido[4,3-d]pyrimidin-5-yl]-piperazin-1-yl}-morpholin-4-yl-methanone] and `N#CCC(=O)N1CCN(c2nccc3nc(NCc4ccccc4Cl)ncc23)CC1` [Compound 128, 3-{4-[2-(2-Chloro-benzylamino)-pyrido[4,3-d]pyrimidin-5-yl]-piperazin-1-yl}-3-oxo-propionitrile] cannot be ordered by pIC50: over 5.30 for the first, over 4.52 for the second.

`O=C(Cc1ccccn1)N1CCN(c2nccc3nc(NCc4ccccc4Cl)ncc23)CC1` [Compound 119, 1-{4-[2-(2-Chloro-benzylamino)-pyrido[4,3-d]pyrimidin-5-yl]-piperazin-1-yl}-2-pyridin-2-yl-ethanone] and `O=C(Cc1cccnc1)N1CCN(c2nccc3nc(NCc4ccccc4Cl)ncc23)CC1` [Compound 121, 1-{4-[2-(2-Chloro-benzylamino)-pyrido[4,3-d]pyrimidin-5-yl]-piperazin-1-yl}-2-pyridin-3-yl-ethanone] cannot be ordered by pIC50: over 5.30 for the first, over 5.30 for the second.

`Cn1cc(CCC(=O)N2CCN(c3nccc4nc(NCc5ccccc5Cl)ncc34)CC2)cn1` [Compound 120, 1-{4-[2-(2-Chloro-benzylamino)-pyrido[4,3-d]pyrimidin-5-yl]-piperazin-1-yl}-3-(1-methyl-1H-pyrazol-4-yl)-propan-1-one] and `O=C(CCc1c[nH]cn1)N1CCN(c2nccc3nc(NCc4ccccc4Cl)ncc23)CC1` [Compound 122, 1-{4-[2-(2-Chloro-benzylamino)-pyrido[4,3-d]pyrimidin-5-yl]-piperazin-1-yl}-3-(1H-imidazol-4-yl)-propan-1-one] cannot be ordered by pIC50: over 4.52 for the first, over 5.30 for the second.

`CC(=O)CCC(=O)N1CCN(c2nccc3nc(NCc4ccccc4Cl)ncc23)CC1` [Compound 123, 1-{4-[2-(2-Chloro-benzylamino)-pyrido[4,3-d]pyrimidin-5-yl]-piperazin-1-yl}-pentane-1,4-dione] and `CN(C)C(=O)CCC(=O)N1CCN(c2nccc3nc(NCc4ccccc4Cl)ncc23)CC1` [Compound 125, 4-{4-[2-(2-Chloro-benzylamino)-pyrido[4,3-d]pyrimidin-5-yl]-piperazin-1-yl}-N,N-dimethyl-4-oxo-butyramide] cannot be ordered by pIC50: over 4.52 for the first, over 4.52 for the second.

`CC(=O)OCC(=O)N1CCN(c2nccc3nc(NCc4ccccc4Cl)ncc23)CC1` [Compound 126, Acetic acid 2-{4-[2-(2-chloro-benzylamino)-pyrido[4,3-d]pyrimidin-5-yl]-piperazin-1-yl}-2-oxo-ethyl ester] and `COCCOCC(=O)N1CCN(c2nccc3nc(NCc4ccccc4Cl)ncc23)CC1` [Compound 136, 1-{4-[2-(2-Chloro-benzylamino)-pyrido[4,3-d]pyrimidin-5-yl]-piperazin-1-yl}-2-(2-methoxy-ethoxy)-ethanone] cannot be ordered by pIC50: over 5.30 for the first, over 4.52 for the second.

`O=C(O)C1CCN(c2nccc3nc(NCc4ccccc4Cl)ncc23)CC1` [Compound 127, 1-[2-(2-Chloro-benzylamino)-pyrido[4,3-d]pyrimidin-5-yl]-piperidine-4-carboxylic acid] and `CNC(=O)C1CCN(c2nccc3nc(NCc4ccccc4Cl)ncc23)CC1` [Compound 139, 1-[2-(2-Chloro-benzylamino)-pyrido[4,3-d]pyrimidin-5-yl]-piperidine-4-carboxylic acid methylamide] cannot be ordered by pIC50: over 5.30 for the first, over 4.52 for the second.

`N[C@H]1CCN(CC(=O)N2CCN(c3nccc4nc(NCc5ccccc5Cl)ncc34)CC2)C1=O` [Compound 133, (S)-3-Amino-1-(2-{4-[2-(2-chloro-benzylamino)-pyrido[4,3-d]pyrimidin-5-yl]-piperazin-1-yl}-2-oxo-ethyl)-pyrrolidin-2-one] and `O=C(O)CN1CCN(c2nccc3nc(NCc4ccccc4Cl)ncc23)CC1` [Compound 145, {4-[2-(2-Chloro-benzylamino)-pyrido[4,3-d]pyrimidin-5-yl]-piperazin-1-yl}-acetic acid] cannot be ordered by pIC50: over 4.52 for the first, over 5.00 for the second.

`O=C(Cc1ccncc1)N1CCN(c2nccc3nc(NCc4ccccc4Cl)ncc23)CC1` [Compound 138, 1-{4-[2-(2-Chloro-benzylamino)-pyrido[4,3-d]pyrimidin-5-yl]-piperazin-1-yl}-2-pyridin-4-yl-ethanone] and `O=C(OCc1cccnc1)N1CCN(c2nccc3nc(NCc4ccccc4Cl)ncc23)CC1` [Compound 151, 4-[2-(2-Chloro-benzylamino)-pyrido[4,3-d]pyrimidin-5-yl]-piperazine-1-carboxylic acid pyridin-3-ylmethyl ester] cannot be ordered by pIC50: over 4.52 for the first, over 4.52 for the second.

`CN(C)C(=O)C1CCN(c2nccc3nc(NCc4ccccc4Cl)ncc23)CC1` [Compound 140, 1-[2-(2-Chloro-benzylamino)-pyrido[4,3-d]pyrimidin-5-yl]-piperidine-4-carboxylic acid dimethylamide] and `O=C(NCc1ccc(F)cc1Cl)C1CCN(c2nccc3nc(NCc4ccccc4Cl)ncc23)CC1` [Compound 144, 1-[2-(2-Chloro-benzylamino)-pyrido[4,3-d]pyrimidin-5-yl]-piperidine-4-carboxylic acid 2-chloro-4-fluoro-benzylamide] cannot be ordered by pIC50: over 4.52 for the first, over 4.52 for the second.

`O=C(C1CCN(c2nccc3nc(NCc4ccccc4Cl)ncc23)CC1)N1CCC[C@H]1CN1CCCC1` [Compound 142, {1-[2-(2-Chloro-benzylamino)-pyrido[4,3-d]pyrimidin-5-yl]-piperidin-4-yl}-((S)-2-pyrrolidin-1-ylmethyl-pyrrolidin-1-yl)-methanone] and `CS(=O)(=O)CS(=O)(=O)N1CCN(c2nccc3nc(NCc4ccccc4Cl)ncc23)CC1` [Compound 156, (2-Chloro-benzyl)-[5-(4-methanesulfonylmethanesulfonyl-piperazin-1-yl)-pyrido[4,3-d]pyrimidin-2-yl]-amine] cannot be ordered by pIC50: over 4.52 for the first, over 4.52 for the second.

`Clc1ccccc1CNc1ncc2c(NCCc3ccccn3)nccc2n1` [Compound 146, N2-(2-Chloro-benzyl)-N5-(2-pyridin-2-yl-ethyl)-pyrido[4,3-d]pyrimidine-2,5-diamine] and `Clc1ccccc1CNc1ncc2c(NCCc3cccnc3)nccc2n1` [Compound 147, N2-(2-Chloro-benzyl)-N5-(2-pyridin-3-yl-ethyl)-pyrido[4,3-d]pyrimidine-2,5-diamine] cannot be ordered by pIC50: over 4.52 for the first, over 4.52 for the second.

Molecule `Clc1ccccc1CNc1ncc2c(NCCc3ccncc3)nccc2n1` [Compound 148, N2-(2-Chloro-benzyl)-N5-(2-pyridin-4-yl-ethyl)-pyrido[4,3-d]pyrimidine-2,5-diamine] has a pIC50 of over 4.52.
